pIC50: −log10 of the molar value. Like-named read-outs stand apart in the source and are kept apart here. Marks after values point to notes of the source that are not given here.
Columns and labels:
Format in all cases: cell-based
[1] = target: T1, recombinant rat GluN1/GluN2A (Rattus norvegicus, UniProt P35439+Q00959); test: Two-electrode voltage-clamp recordings in Xenopus laevis oocytes, GluN2A; settings: oocytes, 100 μM glutamate and 30 μM glycine
T1 construct: expressed in transfected cells; host or cells: Xenopus laevis oocytes injected with cRNA (GluN1:GluN2 ratio 1:2)
T1 sequence (Q00959 23-1464, other chains not shown): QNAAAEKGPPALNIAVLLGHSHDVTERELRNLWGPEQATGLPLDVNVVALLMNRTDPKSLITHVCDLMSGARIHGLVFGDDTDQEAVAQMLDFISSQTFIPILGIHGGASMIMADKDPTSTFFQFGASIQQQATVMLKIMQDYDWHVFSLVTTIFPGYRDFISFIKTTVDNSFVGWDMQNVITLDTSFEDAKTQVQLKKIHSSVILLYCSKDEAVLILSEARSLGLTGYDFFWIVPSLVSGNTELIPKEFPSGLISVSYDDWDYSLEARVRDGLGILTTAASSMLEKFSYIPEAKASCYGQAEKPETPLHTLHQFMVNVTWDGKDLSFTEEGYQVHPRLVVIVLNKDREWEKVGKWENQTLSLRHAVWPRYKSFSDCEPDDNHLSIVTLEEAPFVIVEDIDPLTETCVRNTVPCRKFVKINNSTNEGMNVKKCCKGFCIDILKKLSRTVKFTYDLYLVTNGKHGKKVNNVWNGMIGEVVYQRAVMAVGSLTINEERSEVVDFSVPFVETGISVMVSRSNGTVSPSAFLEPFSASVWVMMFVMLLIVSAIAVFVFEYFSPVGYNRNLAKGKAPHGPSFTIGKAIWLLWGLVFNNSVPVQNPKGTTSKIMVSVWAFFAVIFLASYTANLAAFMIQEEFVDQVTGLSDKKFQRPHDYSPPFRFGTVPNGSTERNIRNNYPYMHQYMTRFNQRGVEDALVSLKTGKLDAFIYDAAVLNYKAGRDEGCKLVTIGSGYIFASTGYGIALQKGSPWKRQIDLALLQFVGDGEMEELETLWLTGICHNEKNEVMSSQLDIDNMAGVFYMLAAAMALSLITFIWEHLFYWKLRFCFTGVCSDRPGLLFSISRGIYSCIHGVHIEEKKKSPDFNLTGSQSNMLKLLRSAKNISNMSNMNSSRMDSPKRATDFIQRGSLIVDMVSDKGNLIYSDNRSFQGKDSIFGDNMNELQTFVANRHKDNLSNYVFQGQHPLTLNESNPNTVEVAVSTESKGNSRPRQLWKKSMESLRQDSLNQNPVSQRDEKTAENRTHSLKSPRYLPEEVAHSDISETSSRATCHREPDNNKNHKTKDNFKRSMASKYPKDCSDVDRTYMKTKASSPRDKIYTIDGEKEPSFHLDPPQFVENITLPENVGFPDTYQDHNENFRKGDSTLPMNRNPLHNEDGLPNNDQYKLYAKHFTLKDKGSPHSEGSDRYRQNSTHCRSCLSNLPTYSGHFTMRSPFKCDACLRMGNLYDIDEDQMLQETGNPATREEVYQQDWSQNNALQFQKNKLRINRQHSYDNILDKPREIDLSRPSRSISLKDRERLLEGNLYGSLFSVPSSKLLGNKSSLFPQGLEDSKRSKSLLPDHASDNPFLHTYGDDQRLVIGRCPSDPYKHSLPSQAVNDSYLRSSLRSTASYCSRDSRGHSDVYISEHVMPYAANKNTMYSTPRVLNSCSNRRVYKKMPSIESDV
Description: (§1) All target compounds were evaluated for activity by the Traynelis laboratory at Emory University using two-electrode voltage-clamp recordings performed in Xenopus laevis oocytes expressing recombinant GluN2A-D subunits (Table 1). […] Two ester compounds 997-65 and 997-66 also performed no inhibition at GluN2A to GluN2D receptors. […] Consequently, for the compounds that Acker et al. already published, it was necessary to increase the concentration to 100 μM when collecting data for a concentration effect curve. […] Therefore, under this condition, we can only conclude that compound 997-67 remained potent at GluN2C/D-containing receptors, but its selectivity over GluN2A- and GluN2B-containing receptors could not be compared to 997-57. […] Finally, replacing the carboxylic acid to the bio-isostere amide yielded compounds 997-96 and 997-115, which dropped the potency 2- to 4-fold in comparison to their corresponding acids 997-74 and 997-114.
(§2) Two-electrode voltage-clamp recordings were performed in Xenopus laevis oocytes that were injected with mRNA to express recombinant rat GluN1/GluN2A, GluN1/GluN2B, GluN1/GluN2C, and GluN1/GluN2D. The recordings using unfertilized oocytes from Xenopus laevis were permitted by Emory University Institutional Animal Care and Use Committee (IACUC). An automatic injector (Nanoject II, Drummond Scientific) was used for cRNA injection using the pipettes filled with mineral oil. The cRNA that transcribed in vitro via the mMessage Machine kit (Ambion) was diluted with nuclease-free water, and then injected at GluN1/GluN2 with a ratio of 1:2. The oocytes were stored in Barth's solution that contained 88 mM NaCl, 5.0 mM Tris-HCl, 2.4 mM NaHCO3, 1.0 mM KCl, 0.84 mM MgSO4, 0.41 mM CaCl2, 0.33 mM Ca(NO3)2, 0.1 mg/ml gentamycin sulfate, 1.0 U/ml penicillin, and 1 μg/ml streptomycin at a pH of 7.4 and temperatures of 15-17° C. for two to five days before the two-electrode voltage-clamp recordings. When recording, the oocytes were placed in a perfusion chamber and continually washed with the recording solution comprised of 90 mM NaCl, 1.0 mM KCl, 0.50 mM BaCl2, 0.005 mM EDTA, and 10 mM HEPES at a pH of 7.4 and a temperature of 23° C. Glass electrodes with a tip resistance of 0.5 to 2.5 MΩ were obtained from thin-walled glass capillary tubes. Voltage electrodes and current electrodes were filled with 0.3 M and 3.0 M KCl, respectively. The recordings were executed with the oocytes membrane potential holding at −40 m V by an OC-725 amplifier (Warner Instrument Co). All compounds were dissolved in dimethyl sulfoxide (DMSO) as 20 mM stock solutions and future diluted to reach the desired concentration (0.05-0.5% (vol/vol) DMSO) in recording solution comprised of 30 μM glycine and 100 μM glutamate. Each compound was recorded 3-7 times in the least 4 oocytes from at least 2 different Xenopus laevis.
(§3) To evaluate the inhibition of compounds, the concentration-response curve was fitted with the average two-electrode voltage-clamp recording results with the equation
(§4) [formula] • where IC50 is the concentration of compounds that inhibit half maximal of the current response and N is the Hill slope.

[2] = target: T2, recombinant rat GluN1/GluN2D (Rattus norvegicus, UniProt P35439+Q62645); test: Two-electrode voltage-clamp recordings in Xenopus laevis oocytes, GluN2D
T2 construct: expressed in transfected cells; host or cells: Xenopus laevis oocytes injected with cRNA (GluN1:GluN2 ratio 1:2)
T2 sequence (Q62645 28-1323, other chains not shown): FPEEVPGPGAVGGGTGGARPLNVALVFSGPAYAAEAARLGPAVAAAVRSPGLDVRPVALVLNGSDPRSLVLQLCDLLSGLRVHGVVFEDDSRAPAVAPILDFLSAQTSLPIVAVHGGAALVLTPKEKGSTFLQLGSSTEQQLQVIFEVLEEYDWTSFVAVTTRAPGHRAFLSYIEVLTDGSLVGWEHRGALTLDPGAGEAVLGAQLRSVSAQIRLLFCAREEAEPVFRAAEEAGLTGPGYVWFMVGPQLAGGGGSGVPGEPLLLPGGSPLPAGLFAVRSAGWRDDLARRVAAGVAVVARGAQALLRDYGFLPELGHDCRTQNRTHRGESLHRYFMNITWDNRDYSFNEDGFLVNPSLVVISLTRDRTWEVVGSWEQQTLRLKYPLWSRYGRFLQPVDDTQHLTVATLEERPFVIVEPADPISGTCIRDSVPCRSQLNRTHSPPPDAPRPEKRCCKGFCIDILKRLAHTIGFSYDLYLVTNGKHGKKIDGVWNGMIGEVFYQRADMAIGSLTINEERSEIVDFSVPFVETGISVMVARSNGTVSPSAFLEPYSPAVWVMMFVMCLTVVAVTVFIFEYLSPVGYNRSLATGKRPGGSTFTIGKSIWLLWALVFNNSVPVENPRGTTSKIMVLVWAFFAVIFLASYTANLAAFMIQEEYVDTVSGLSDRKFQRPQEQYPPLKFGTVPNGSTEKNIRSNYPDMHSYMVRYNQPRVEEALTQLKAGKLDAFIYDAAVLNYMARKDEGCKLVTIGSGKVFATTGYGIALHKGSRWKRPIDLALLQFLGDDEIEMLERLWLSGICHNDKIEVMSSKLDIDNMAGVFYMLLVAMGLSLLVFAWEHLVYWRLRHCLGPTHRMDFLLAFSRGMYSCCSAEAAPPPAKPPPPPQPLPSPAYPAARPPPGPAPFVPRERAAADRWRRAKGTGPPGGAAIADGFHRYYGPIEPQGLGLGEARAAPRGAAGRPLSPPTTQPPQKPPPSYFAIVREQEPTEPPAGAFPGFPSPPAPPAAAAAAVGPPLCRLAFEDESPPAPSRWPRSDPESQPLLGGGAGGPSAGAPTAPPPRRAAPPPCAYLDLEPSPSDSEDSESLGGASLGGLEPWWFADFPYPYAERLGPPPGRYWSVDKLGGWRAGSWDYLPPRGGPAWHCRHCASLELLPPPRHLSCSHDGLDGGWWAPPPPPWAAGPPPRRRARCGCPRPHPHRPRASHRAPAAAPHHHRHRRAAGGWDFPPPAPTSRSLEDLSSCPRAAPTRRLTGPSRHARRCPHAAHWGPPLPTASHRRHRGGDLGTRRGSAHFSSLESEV
Description: as §1, §2, §3, §4

[3] = target: T3, recombinant rat GluN1/GluN2D (Rattus norvegicus, UniProt Q62645); test: as above; settings: for 2A IC50 / 2D IC50 / 2B IC50 / 2D IC50: ratio of IC50 values
T3 construct: expressed in transfected cells; host or cells: Xenopus laevis oocytes injected with cRNA (GluN1:GluN2 ratio 1:2)
T3 sequence (Q62645 28-1323, other chains not shown): as above
Description: as §1, §2, §3, §4

[4] = target: T4, recombinant rat GluN1/GluN2B (Rattus norvegicus, UniProt P35439+Q00960); test: Two-electrode voltage-clamp recordings in Xenopus laevis oocytes, GluN2B; settings: oocytes, 100 μM glutamate and 30 μM glycine
T4 construct: expressed in transfected cells; host or cells: Xenopus laevis oocytes injected with cRNA (GluN1:GluN2 ratio 1:2)
Description: as §1, §2, §3, §4

[5] = target: T5, recombinant rat GluN1/GluN2C (Rattus norvegicus, UniProt P35439+Q00961); test: Two-electrode voltage-clamp recordings in Xenopus laevis oocytes, GluN2C
T5 construct: expressed in transfected cells; host or cells: Xenopus laevis oocytes injected with cRNA (GluN1:GluN2 ratio 1:2)
T5 sequence (Q00961 20-1237, other chains not shown): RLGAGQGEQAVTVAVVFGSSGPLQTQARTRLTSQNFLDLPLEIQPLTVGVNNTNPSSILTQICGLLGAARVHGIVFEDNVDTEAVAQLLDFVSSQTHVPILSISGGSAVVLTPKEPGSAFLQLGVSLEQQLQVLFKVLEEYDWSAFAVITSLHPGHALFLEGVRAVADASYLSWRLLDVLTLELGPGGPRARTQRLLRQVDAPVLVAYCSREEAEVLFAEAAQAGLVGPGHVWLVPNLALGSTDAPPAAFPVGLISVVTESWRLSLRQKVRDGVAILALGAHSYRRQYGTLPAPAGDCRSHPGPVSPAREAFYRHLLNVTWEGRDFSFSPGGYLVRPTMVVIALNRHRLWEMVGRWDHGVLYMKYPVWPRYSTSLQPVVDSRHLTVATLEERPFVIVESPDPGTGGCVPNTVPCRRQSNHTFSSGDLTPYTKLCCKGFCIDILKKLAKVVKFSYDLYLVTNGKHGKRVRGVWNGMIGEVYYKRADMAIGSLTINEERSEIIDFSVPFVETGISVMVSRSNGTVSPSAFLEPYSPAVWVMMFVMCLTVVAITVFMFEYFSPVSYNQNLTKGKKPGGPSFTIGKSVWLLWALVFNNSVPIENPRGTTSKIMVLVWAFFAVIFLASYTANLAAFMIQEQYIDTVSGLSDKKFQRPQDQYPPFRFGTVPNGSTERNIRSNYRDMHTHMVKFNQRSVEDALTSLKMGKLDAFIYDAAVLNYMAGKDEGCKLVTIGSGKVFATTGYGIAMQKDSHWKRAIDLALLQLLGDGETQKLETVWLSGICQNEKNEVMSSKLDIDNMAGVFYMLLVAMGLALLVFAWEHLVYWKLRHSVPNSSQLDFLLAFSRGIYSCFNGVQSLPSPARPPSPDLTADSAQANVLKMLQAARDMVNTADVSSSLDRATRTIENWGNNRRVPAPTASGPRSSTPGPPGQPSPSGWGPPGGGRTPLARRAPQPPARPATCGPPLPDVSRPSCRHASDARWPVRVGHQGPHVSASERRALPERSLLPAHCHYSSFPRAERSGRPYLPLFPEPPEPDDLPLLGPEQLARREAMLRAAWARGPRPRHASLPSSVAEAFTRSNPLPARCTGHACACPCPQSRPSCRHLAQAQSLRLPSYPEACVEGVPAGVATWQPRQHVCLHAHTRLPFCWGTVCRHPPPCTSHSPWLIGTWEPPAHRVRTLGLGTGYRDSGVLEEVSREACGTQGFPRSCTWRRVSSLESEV
Description: as §1, §2, §3, §4

[6] = target: T6, recombinant rat GluN1/GluN2A (Rattus norvegicus, UniProt Q00959); test: Two-electrode voltage-clamp recordings in Xenopus laevis oocytes, GluN2A; settings: 3 μM compound with 100 μM glutamate and 30 μM glycine, control set as 1
T6 construct: expressed in transfected cells; host or cells: Xenopus laevis oocytes injected with cRNA (GluN1:GluN2 ratio 1:2)
Description: as §1, §2, §3, §4

[7] = target: T7, recombinant rat GluN1/GluN2B (Rattus norvegicus, UniProt Q00960); test: Two-electrode voltage-clamp recordings in Xenopus laevis oocytes, GluN2B; settings: 3 μM compound with 100 μM glutamate and 30 μM glycine, control set as 1
T7 construct: expressed in transfected cells; host or cells: Xenopus laevis oocytes injected with cRNA (GluN1:GluN2 ratio 1:2)
Description: as §1, §2, §3, §4

[8] = target: T8, recombinant rat GluN1/GluN2C (Rattus norvegicus, UniProt Q00961); test: Two-electrode voltage-clamp recordings in Xenopus laevis oocytes, GluN2C; settings: 3 μM compound with 100 μM glutamate and 30 μM glycine, control set as 1
T8 construct: expressed in transfected cells; host or cells: Xenopus laevis oocytes injected with cRNA (GluN1:GluN2 ratio 1:2)
T8 sequence (Q00961 20-1237, other chains not shown): as above
Description: as §1, §2, §3, §4

[9] = read-out: IC50 at GluN2D-containing receptors
[10] = oocytes, 100 μM glutamate and 30 μM glycine, read-out: GluN2C IC50
[11] = oocytes, 100 μM glutamate and 30 μM glycine, read-out: GluN2D IC50
[12] = mean IC50 with bottom and top 95% confidence interval, read-out: Avg. GluN2D IC50 (95% CI)
[13] = mean IC50 with bottom and top 95% confidence interval, read-out: Avg. GluN2C IC50 (95% CI)

Row | Structure (SMILES) | pIC50 [1] | 2B IC50 / 2D IC50 [3] | pIC50 [4] | pIC50 [5, 10] | pIC50 [2, 11] | also measured
1 | O=C(O)/C=C(/F)C(=O)N1N=C(c2c(-c3ccc(Cl)cc3)c3ccccc3[nH]c2=O)CC1c1ccc(Cl)cc1 (stereo not shown) [997-101, (E)-4-(5-(4-chlorophenyl)-3-(4-(4-chlorophenyl)-2-oxo-1,2-dihydroquinolin-3-yl)-4,5-dihydro-1H-pyrazol-1-yl)-3-fluoro-4-oxobut-2-enoic acid] | 5.52 | 183 | 4.96 | 7.15 |  | pIC50 [2, 9]: 7.22; selectivity at GluN2D- over GluN2A-containing receptor [3]: 50 fold; 2A IC50 / 2D IC50 [3]: 50
2 | O=C(O)CC(F)(F)C(=O)N1N=C(c2c(-c3ccc(Cl)cc3)c3ccccc3[nH]c2=O)CC1c1ccc(C(F)(F)F)cc1 (stereo not shown) [997-113, 4-(3-(4-(4-chlorophenyl)-2-oxo-1,2-dihydroquinolin-3-yl)-5-(4-(trifluoromethyl)phenyl)-4,5-dihydro-1H-pyrazol-1-yl)-3,3-difluoro-4-oxobutanoic acid] | 5.64 | 36 | 5.54 | 6.77 | 7.10 | 
3 | O=C(O)CCC(=O)N1N=C(c2c(-c3ccc(Cl)cc3)c3ccccc3[nH]c2=O)CC1c1ccc(Cl)s1 (stereo not shown) [997-111, 4-(3-(4-(4-chlorophenyl)-2-oxo-1,2-dihydroquinolin-3-yl)-5-(5-chlorothiophen-2-yl)-4,5-dihydro-1H-pyrazol-1-yl)-4-oxobutanoic acid] | 4.68 | 43 | 4.47 | 5.89 | 6.10 | 
4 | O=C(O)CCC(=O)N1N=C(c2c(-c3ccc(Cl)cc3)c3ccccc3[nH]c2=O)CC1c1ccc(C(F)(F)F)cc1 (stereo not shown) [997-112, 4-(3-(4-(4-chlorophenyl)-2-oxo-1,2-dihydroquinolin-3-yl)-5-(4-(trifluoromethyl)phenyl)-4,5-dihydro-1H-pyrazol-1-yl)-4-oxobutanoic acid] | 4.89 | 100 | 4.70 | 6.46 | 6.70 | 
5 | O=C(O)CC(F)(F)C(=O)N1N=C(c2ccccc2-c2ccc(Cl)cc2)CC1c1ccc(Cl)s1 (stereo not shown) [997-118, 4-(3-(4′-chloro-[1,1′-biphenyl]-2-yl)-5-(5-chlorothiophen-2-yl)-4,5-dihydro-1H-pyrazol-1-yl)-3,3-difluoro-4-oxobutanoic acid] | 5.05 | 3 | 4.92 | 5.43 | 5.43 | 
6 | Cc1ccc2[nH]c(=O)c(C3=NN(C(=O)C(F)(F)CC(=O)O)C(c4ccc(Cl)cc4)C3)c(-c3ccc(Cl)cc3)c2c1 (single isomer, unassigned; (-)) [(−)-997-90] | 5.72 |  | 5.72 | 6.70 | 6.89 | I3 μM/Icontrol (mean ± SEM, %) GluN2A ([6]; listed as (−)-90): 33 ± 4.5%; pIC50 [2, 12]: 6.89; I3 μM/Icontrol (mean ± SEM, %) GluN2D ([3]; 3 μM compound with 100 μM glutamate and 30 μM glycine, control set as 1): 3.4 ± 1.2%; I3 μM/Icontrol (mean ± SEM, %) GluN2B ([7]; listed as (−)-90): 34 ± 5.0%; I3 μM/Icontrol (mean ± SEM, %) GluN2C ([8]; listed as (−)-90): 7.0 ± 2.2%; pIC50 [5, 13]: 6.68
7 | Cc1ccc2[nH]c(=O)c(C3=NN(C(=O)C(F)(F)CC(=O)O)C(c4ccc(Cl)cc4)C3)c(-c3ccc(Cl)cc3)c2c1 (single isomer, unassigned; (+)) [(+)-997-90] | 5.39 |  | 5.74 | 5.68 | > 6.00 | I3 μM/Icontrol (mean ± SEM, %) GluN2A ([6]; listed as (+)-90): 72 ± 2.9%; pIC50 [2, 12]: 6.18; I/Icontrol (mean ± SEM, %) GluN2D, data with ** ([3]; 1 μM compound with 100 μM glutamate and 30 μM glycine, control set as 1): 31 ± 9.8** %; I3 μM/Icontrol (mean ± SEM, %) GluN2B ([7]; listed as (+)-90): 53 ± 3.6%; I3 μM/Icontrol (mean ± SEM, %) GluN2C ([8]; listed as (+)-90): 36 ± 3.0%; pIC50 [5, 13]: 5.68
8 | O=C(O)CC(F)(F)C(=O)N1N=C(c2c(-c3ccc(Cl)cc3)c3ccccc3[nH]c2=O)CC1c1ccc(F)cc1 (stereo not shown) [997-104, 4-(3-(4-(4-chlorophenyl)-2-oxo-1,2-dihydroquinolin-3-yl)-5-(4-fluorophenyl)-4,5-dihydro-1H-pyrazol-1-yl)-3,3-difluoro-4-oxobutanoic acid] | 4.70 | 37 | 4.52 | 5.80 | 6.09 | fold decrease of potency at GluN2D in comparison to 997-74 ([3]; comparator 997-74): 16 fold
9 | O=C(O)CC(F)(F)C(=O)N1N=C(c2c(-c3ccc(Cl)s3)c3ccccc3[nH]c2=O)CC1c1ccc(Cl)cc1 (stereo not shown) [997-109, 4-(5-(4-chlorophenyl)-3-(4-(5-chlorothiophen-2-yl)-2-oxo-1,2-dihydroquinolin-3-yl)-4,5-dihydro-1H-pyrazol-1-yl)-3,3-difluoro-4-oxobutanoic acid] | 5.59 |  | 5.40 | 6.55 |  | pIC50 [2, 9]: 7.00
10 | O=C(O)CC(F)(F)C(=O)N1N=C(c2ccccc2-c2ccc(Cl)cc2)CC1c1ccc(OC(F)(F)F)cc1 (stereo not shown) [997-117, 4-(3-(4′-chloro-[1,1′-biphenyl]-2-yl)-5-(4-(trifluoromethoxy)phenyl)-4,5-dihydro-1H-pyrazol-1-yl)-3,3-difluoro-4-oxobutanoic acid] | 4.76 | 3 | 5.06 | 5.46 | 5.54 | 
11 | O=C(CC(F)(F)C(=O)O)N1N=C(c2c(-c3ccc(Cl)cc3)c3ccccc3[nH]c2=O)CC1c1ccc(Cl)cc1 (stereo not shown) [997-114, 4-(5-(4-chlorophenyl)-3-(4-(4-chlorophenyl)-2-oxo-1,2-dihydroquinolin-3-yl)-4,5-dihydro-1H-pyrazol-1-yl)-2,2-difluoro-4-oxobutanoic acid] | 5.25 | 48 | 5.09 | 6.47 |  | pIC50 [2, 9]: 6.77; 2A IC50 / 2D IC50 [3]: 33
12 | O=C(O)CCC(=O)N1N=C(c2c(-c3ccc(Cl)s3)c3ccccc3[nH]c2=O)CC1c1ccc(Cl)cc1 (stereo not shown) [997-108, 4-(5-(4-chlorophenyl)-3-(4-(5-chlorothiophen-2-yl)-2-oxo-1,2-dihydroquinolin-3-yl)-4,5-dihydro-1H-pyrazol-1-yl)-4-oxobutanoic acid] | 4.89 |  | 4.64 | 6.17 | 6.40 | 
13 | O=C(O)CC(F)(F)C(=O)N1N=C(c2ccccc2-c2ccc(F)c(Cl)c2)CC1c1ccc(Cl)cc1 (stereo not shown) [997-120, 4-(3-(3′-chloro-4′-fluoro-[1,1′-biphenyl]-2-yl)-5-(4-chlorophenyl)-4,5-dihydro-1H-pyrazol-1-yl)-3,3-difluoro-4-oxobutanoic acid] | 4.96 |  | 5.06 | 5.28 | 5.47 | 
14 | O=C(O)CCC(=O)N1N=C(c2c(-c3ccc(Cl)cc3)c3ccccc3[nH]c2=S)CC1c1ccc(Cl)cc1 (stereo not shown) [997-97, 4-(5-(4-chlorophenyl)-3-(4-(4-chlorophenyl)-2-thioxo-1,2-dihydroquinolin-3-yl)-4,5-dihydro-1H-pyrazol-1-yl)-4-oxobutanoic acid] | 4.80 | 86 | 4.52 | 6.32 | 6.46 | 2A IC50 / 2D IC50 [3]: 46
